Target: Recombinant human c-KIT kinase (Homo sapiens (Human), UniProt P10721)
Assay: c-KIT kinase chemiluminescence assay (ADP-Glo)
Type: biochemical
Settings: ATP 50 μM
Protocol: The c-KIT Kinase Enzyme System (V4498) and ADP-Glo™ Kinase Assay kit (V6930) were purchased from Promega (Madison, WI). DMSO (D2650) was purchased from Sigma-Aldrich (Burlington, MA).
Kinase Reaction: The kinase assay was based on the recommended protocol by c-KIT Kinase Enzyme System from Promega. Recombinant human c-KIT kinase in 3 μL of assay buffer (40 mM Tris pH 7.5, 20 mM MgCl2, 0.1 mg/mL BSA and 50 μM DTT) was added to the test or high control wells and 3 μL of assay buffer was added to the low control wells. The microplate was centrifuged at 800 rotations per minute (rpm) for 60 s and incubated at room temperature (RT) for 30 min. Next, 2 μL of buffered ATP and polyEY substrate solution was added to all wells. The microplate was centrifuged at 800 rpm for 60 s and incubated at RT for 2 h.
ADP detection with ADP-Glo™ Kinase Assay: After the kinase reaction incubation, 5 μL of ADP-Glo™ reagent was added to all wells. The microplate was centrifuged at 800 rpm for 60 s and incubated at RT for 40 min. Ten microliter (10 μL) of Kinase Detection Reagent (Luciferin-Luciferase system) was then added to all wells. The microplate was centrifuged at 800 rpm for 60 s and incubated at RT for 60 min. Kinase activity was measured as increase in luminescence at RT in an Envision plate reader equipped with 560 nm filters and operating in endpoint mode. Data Analysis: Endpoint chemiluminescence from high and low control wells were used to calculate normalized c-KIT activity at various concentrations of test compounds. The normalized activities were fitted to inhibitor-versus-normalized response fit in GraphPad Prism 7 to determine half-maximal inhibitory concentration (IC50) and hill coefficient values (H).
Where I is the inhibitor concentration and H is the Hill coefficient.

Sequence of Recombinant human c-KIT kinase (P10721 26-976): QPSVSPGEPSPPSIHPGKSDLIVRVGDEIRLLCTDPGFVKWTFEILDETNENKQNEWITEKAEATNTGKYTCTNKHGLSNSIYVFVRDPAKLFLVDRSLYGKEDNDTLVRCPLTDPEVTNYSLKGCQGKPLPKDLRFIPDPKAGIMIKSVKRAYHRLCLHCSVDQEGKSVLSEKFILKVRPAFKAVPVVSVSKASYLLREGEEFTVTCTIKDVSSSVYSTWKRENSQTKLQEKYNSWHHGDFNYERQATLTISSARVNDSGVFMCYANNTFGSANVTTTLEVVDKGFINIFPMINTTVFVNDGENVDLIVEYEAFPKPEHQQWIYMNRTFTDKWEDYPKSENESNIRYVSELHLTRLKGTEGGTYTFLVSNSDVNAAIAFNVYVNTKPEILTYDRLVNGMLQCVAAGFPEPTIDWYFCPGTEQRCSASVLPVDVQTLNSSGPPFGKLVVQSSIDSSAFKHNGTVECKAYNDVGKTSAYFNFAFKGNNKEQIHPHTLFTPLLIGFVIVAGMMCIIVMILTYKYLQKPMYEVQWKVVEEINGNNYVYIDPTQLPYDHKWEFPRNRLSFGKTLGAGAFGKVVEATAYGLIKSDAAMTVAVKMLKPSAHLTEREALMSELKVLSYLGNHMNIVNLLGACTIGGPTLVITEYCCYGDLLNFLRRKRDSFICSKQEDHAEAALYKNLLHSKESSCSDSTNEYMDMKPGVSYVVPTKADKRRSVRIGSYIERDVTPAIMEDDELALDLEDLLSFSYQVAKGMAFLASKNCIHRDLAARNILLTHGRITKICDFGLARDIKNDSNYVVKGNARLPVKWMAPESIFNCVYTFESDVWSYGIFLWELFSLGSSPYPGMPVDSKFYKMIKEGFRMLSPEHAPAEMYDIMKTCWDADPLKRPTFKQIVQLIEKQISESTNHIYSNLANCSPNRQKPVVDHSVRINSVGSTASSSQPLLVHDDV

| Compound | IC50 |
| --- | --- |
| Cc1ccc(-c2noc([C@H]3C[C@@H]3F)n2)cc1NC(=O)c1cnn2ccc(-c3c(C)nn(CC(C)(C)O)c3C)cc12 [Example 152] | < 100 nM |
| Cc1ccc(-c2noc([C@H]3C[C@@H]3F)n2)cc1NC(=O)c1cnn2ccc(-c3cccnc3)cc12 [Example 150] | < 100 nM |
| Cc1ccc(-c2noc([C@H]3C[C@@H]3F)n2)cc1NC(=O)c1cnn2ccc(N3CC4(CN(CC(F)F)C4)C3)cc12 [Example 212] | < 100 nM |
| CO[C@H]1C[C@@H](c2nc(-c3ccc(C)c(NC(=O)c4cnn5ccc(N6CC7(COC7)C6)cc45)c3)no2)C1 [Example 273] | 100 to 1000 nM |
| O=C(Nc1cc(-c2ccc(C3CC3)cn2)ccc1Cl)c1cnn2ccc(N3CC4(C3)CC(O)(C(F)F)C4)cc12 [Example 352] | > 1000 nM |
| Cc1ccc(-c2noc([C@H]3C[C@@H]3F)n2)cc1NC(=O)c1cnn2ccc(N3C[C@@H](CS(C)(=O)=O)[C@H]3C)cc12 [Example 175] | < 100 nM |
| Cc1ccc(-c2noc([C@H]3C[C@@H]3F)n2)cc1NC(=O)c1cnn2ccc(N)cc12 [Example 92] | < 100 nM |
| Cc1ccc(-c2ccc(C3CC3)nn2)cc1NC(=O)c1cnn2ccc(N3CC4(COC4)C3)cc12 [Example 343] | < 100 nM |
| Cc1ccc(-c2noc([C@H]3C[C@@H]3F)n2)cc1NC(=O)c1cnn2ccc(N3CC(F)(F)C3)cc12 [Example 222] | < 100 nM |
| Cc1ccc(-c2noc([C@H]3C[C@@H](OC(F)(F)F)C3)n2)cc1NC(=O)c1cnn2ccc(N3CC4(CN(CC(F)F)C4)C3)cc12 [Example 259] | < 100 nM |
| Cc1ccc(-c2noc([C@H]3C[C@@H]3F)n2)cc1NC(=O)c1cnn2ccc(N3CC4(C3)CS(=O)(=O)C4)cc12 [Example 187] | < 100 nM |
| Cc1ccc(-c2noc([C@H]3C[C@@H]3F)n2)cc1NC(=O)c1cnn2c1CCC2 [Example 36] | > 1000 nM |

Second part, the compound after the results:

| IC50 | Compound |
| --- | --- |
| < 100 nM | COC(=O)N1CC(c2nc(-c3cnc(C)c(NC(=O)c4cnn5ccc(N6CC7(C6)CC(O)(C(F)F)C7)cc45)c3)no2)C1 [Example 281-78] |
| 100 to 1000 nM | Cc1ncc(-c2nnn(CC3CC3)n2)cc1NC(=O)c1cnn2ccc(N3CC4(C3)CC(O)(C(F)F)C4)cc12 [Example 312-7] |
| 100 to 1000 nM | Cc1ccc(-c2noc(C3CCN(C(=O)[C@H]4C[C@@H]4F)CC3)n2)cc1NC(=O)c1cnn2ccc(N3CC4(C3)CC(O)(C(F)F)C4)cc12 [Example 281-97] |
| > 1000 nM | CC(=O)Nc1ccc(-c2ncc(C(=O)Nc3cc(-c4noc([C@H]5C[C@@H]5F)n4)ccc3C)o2)cn1 [Example 308-20] |
| 100 to 1000 nM | Cc1ccc(-c2noc([C@H]3C[C@@H]3F)n2)cc1NC(=O)c1cnc(-c2ccc(NC(N)=O)cc2)o1 [Example 308-47] |
| 100 to 1000 nM | Cc1ccc(-c2noc([C@H]3C[C@@H](OC(F)(F)F)C3)n2)cc1NC(=O)c1cnn2ccc(-c3c(C)nc(N)nc3C)cc12 [Example 171-7] |
| < 100 nM | CCOC(=O)N1CC(c2nc(-c3ccc(C)c(NC(=O)c4cnn5ccc(N6CC7(COC7)C6)cc45)c3)no2)C1 [Example 281-110] |
| < 100 nM | Cc1ccc(-c2noc([C@H]3C[C@@H]3F)n2)cc1NC(=O)c1cnn2ccc(N3CC4(COC(C)(C)OC4)C3)cc12 [Example 241-2] |
| 100 to 1000 nM | Cc1ccc(-c2noc([C@H]3C[C@@H]3F)n2)cc1NC(=O)c1cnn2ccc(N3CCN(C(=O)OC(C)(C)C)[C@H](C)C3)cc12 [Example 241-7] |
| > 1000 nM | Cc1ccc(-c2noc(C3CN(C(=O)NC4CC4)C3)n2)cc1NC(=O)c1cnn2ccc(N3CC4(COC4)C3)cc12 [Example 281-56] |

Tested on: M-07e cells
Assay: M-07e cellular assay (SCF-mediated cell proliferation)
Type: cell-based
Settings: Homo sapiens, 72 hours, CellTiter Glo
Protocol: M-07e cells (Creative Bioarray, CSC-C0249) which endogenously express human c-KIT were used to evaluate the effect of compounds on stem cell factor (SCF)-mediated cell proliferation. M-07e cells were cultured in growth media (RPMI+10% FBS+1% penicillin/streptomycin+10 ng/mL GM-CSF) at 5E5-1.5E6 cells/mL, replenishing media every 3-4 days. 1.5E4 cells were seeded per well in 384 well tissue culture treated plates in 20 μL assay media (RPMI+[…]+1% penicillin/streptomycin) without growth factor stimulation and incubated at 37° C. in a CO2 humidity-controlled incubator. Twenty-four hours later, three-fold serially diluted test compounds in media containing SCF (at the previously determined EC90) were added to the plated M-07e cells and incubated for an additional 72 hours. Cell viability was determined by adding 25 μL CellTiter Glo (Promega) to the cells and the luminescence was measured using a Perkin Elmer Envision plate reader. The EC50 was determined using GraphPad Prism. Percent cell growth was determined after normalizing the curve to the mean RLU high control (no compound control wells) at 100% and the mean RLU low control (no SCF control wells) at 0%.

| Compound | EC50 |
| --- | --- |
| COC(=O)N1CC(c2nc(-c3cnc(C)c(NC(=O)c4cnn5ccc(N6CC7(C6)CC(O)(C(F)F)C7)cc45)c3)no2)C1 [Example 281-78] | < 100 nM |
| Cc1ccc(-c2noc([C@H]3C[C@@H]3F)n2)cc1NC(=O)c1cnn2ccc(-c3c(C)nn(CC(C)(C)O)c3C)cc12 [Example 152] | < 100 nM |
| Cc1ncc(-c2nnn(CC3CC3)n2)cc1NC(=O)c1cnn2ccc(N3CC4(C3)CC(O)(C(F)F)C4)cc12 [Example 312-7] | < 100 nM |
| Cc1ccc(-c2noc(C3CCN(C(=O)[C@H]4C[C@@H]4F)CC3)n2)cc1NC(=O)c1cnn2ccc(N3CC4(C3)CC(O)(C(F)F)C4)cc12 [Example 281-97] | 100 to 1000 nM |
| CC(=O)Nc1ccc(-c2ncc(C(=O)Nc3cc(-c4noc([C@H]5C[C@@H]5F)n4)ccc3C)o2)cn1 [Example 308-20] | 100 to 1000 nM |
| Cc1ccc(-c2noc([C@H]3C[C@@H]3F)n2)cc1NC(=O)c1cnc(-c2ccc(NC(N)=O)cc2)o1 [Example 308-47] | 100 to 1000 nM |
| Cc1ccc(-c2noc([C@H]3C[C@@H]3F)n2)cc1NC(=O)c1cnn2ccc(-c3cccnc3)cc12 [Example 150] | < 100 nM |
| Cc1ccc(-c2noc([C@H]3C[C@@H]3F)n2)cc1NC(=O)c1cnn2ccc(N3CC4(CN(CC(F)F)C4)C3)cc12 [Example 212] | < 100 nM |
| CO[C@H]1C[C@@H](c2nc(-c3ccc(C)c(NC(=O)c4cnn5ccc(N6CC7(COC7)C6)cc45)c3)no2)C1 [Example 273] | < 100 nM |
| O=C(Nc1cc(-c2ccc(C3CC3)cn2)ccc1Cl)c1cnn2ccc(N3CC4(C3)CC(O)(C(F)F)C4)cc12 [Example 352] | > 1000 nM |
| Cc1ccc(-c2noc([C@H]3C[C@@H]3F)n2)cc1NC(=O)c1cnn2ccc(N3C[C@@H](CS(C)(=O)=O)[C@H]3C)cc12 [Example 175] | < 100 nM |
| Cc1ccc(-c2noc([C@H]3C[C@@H]3F)n2)cc1NC(=O)c1cnn2ccc(N)cc12 [Example 92] | < 100 nM |
| Cc1ccc(-c2ccc(C3CC3)nn2)cc1NC(=O)c1cnn2ccc(N3CC4(COC4)C3)cc12 [Example 343] | < 100 nM |
| Cc1ccc(-c2noc([C@H]3C[C@@H]3F)n2)cc1NC(=O)c1cnn2ccc(N3CC(F)(F)C3)cc12 [Example 222] | 100 to 1000 nM |
| Cc1ccc(-c2noc([C@H]3C[C@@H](OC(F)(F)F)C3)n2)cc1NC(=O)c1cnn2ccc(N3CC4(CN(CC(F)F)C4)C3)cc12 [Example 259] | < 100 nM |
| Cc1ccc(-c2noc([C@H]3C[C@@H](OC(F)(F)F)C3)n2)cc1NC(=O)c1cnn2ccc(-c3c(C)nc(N)nc3C)cc12 [Example 171-7] | 100 to 1000 nM |
| Cc1ccc(-c2noc([C@H]3C[C@@H]3F)n2)cc1NC(=O)c1cnn2ccc(N3CC4(C3)CS(=O)(=O)C4)cc12 [Example 187] | < 100 nM |
| CCOC(=O)N1CC(c2nc(-c3ccc(C)c(NC(=O)c4cnn5ccc(N6CC7(COC7)C6)cc45)c3)no2)C1 [Example 281-110] | < 100 nM |
| Cc1ccc(-c2noc([C@H]3C[C@@H]3F)n2)cc1NC(=O)c1cnn2c1CCC2 [Example 36] | > 1000 nM |
| Cc1ccc(-c2noc([C@H]3C[C@@H]3F)n2)cc1NC(=O)c1cnn2ccc(N3CC4(COC(C)(C)OC4)C3)cc12 [Example 241-2] | > 1000 nM |
| Cc1ccc(-c2noc([C@H]3C[C@@H]3F)n2)cc1NC(=O)c1cnn2ccc(N3CCN(C(=O)OC(C)(C)C)[C@H](C)C3)cc12 [Example 241-7] | < 100 nM |
| Cc1ccc(-c2noc(C3CN(C(=O)NC4CC4)C3)n2)cc1NC(=O)c1cnn2ccc(N3CC4(COC4)C3)cc12 [Example 281-56] | > 1000 nM |

— patent publication US20250059174A1, “Pharmaceutical Compounds and Compositions as C-Kit Kinase Inhibitors” (Enanta Pharmaceuticals, Inc., priority 2023, published 2025)
